Measured values as given in patent US9199939B2, “Quinoline amide M1 receptor positive allosteric modulators” (Merck Sharp & Dohme Corp., priority 2009, dated 2015).

Each molecule was assayed against T1, acetylcholine muscarinic M1 receptor (Homo sapiens, UniProt P11229) (assay: Muscarinic M1 FLIPR intracellular calcium assay for positive allosteric modulators). Conditions: not given.
T1 construct: expressed in transfected cells; host or cells: CHOnfat (CHO cells; also called CHOK1/hM1)
T1 sequence (P11229 1-460): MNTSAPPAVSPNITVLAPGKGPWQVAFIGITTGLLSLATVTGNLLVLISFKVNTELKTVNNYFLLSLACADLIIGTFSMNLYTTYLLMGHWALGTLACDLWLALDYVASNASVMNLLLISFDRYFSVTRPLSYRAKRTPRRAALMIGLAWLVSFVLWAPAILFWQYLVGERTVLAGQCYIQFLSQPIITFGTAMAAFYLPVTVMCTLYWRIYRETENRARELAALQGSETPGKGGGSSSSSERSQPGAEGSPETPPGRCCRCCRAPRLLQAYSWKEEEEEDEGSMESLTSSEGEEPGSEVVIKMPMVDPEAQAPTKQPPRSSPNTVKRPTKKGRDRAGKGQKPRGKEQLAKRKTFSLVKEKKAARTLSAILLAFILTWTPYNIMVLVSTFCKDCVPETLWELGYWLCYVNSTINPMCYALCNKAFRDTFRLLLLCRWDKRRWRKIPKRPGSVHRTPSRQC
Type: cell-based
Protocol: The assay studies the effect of one or several concentrations of test compounds on basal or acetylcholine-stimulated Ca^2+ levels using FLIPR.
Compounds are prepared and subjected to a preincubation period of 4 min. Thereafter, a single EC20 concentration of acetylcholine is added to each well (3 nM final). The intracellular Ca^2+ level of each sample is measured and compared to an acetylcholine control to determine any modulatory activity.
Cells: CHOnfat/hM1, hM2, hM3 or hM4 cells are plated 24 hr before the assay at a density of 18,000 cells/well (100 μL) in a 384 well plate. CHOnfat/hM1 and CHOnfat/hM3 Growth Medium: 90% DMEM (Hi Glucose); 10% HI FBS; 2 mM L-glutamine; 0.1 mM NEAA; Pen-Strep; and 1 mg/ml Geneticin, are added. For M2Gqi5CHOnfat and M4Gqi5CHOnfat cells, an additional 600 ug/ml hygromycin is added.
Equipment: 384 well plate, 120 μL addition plate; 96-well Whatman 2 ml Uniplate Incubator, 37° C., 5% CO2; Skatron EMBLA-384 Plate Washer; Multimek Pipetting System; Genesis Freedom 200 System; Mosquito System; Temo Nanolitre Pipetting System; and FLIPR^384 Fluorometric Imaging Plate Reader System are used.
Buffers. Assay Buffer: Hanks Balanced Salt Solution, with 20 mM Hepes, 2.5 mM Probenecid (Sigma P-8761) first dissolved in 1 N NaOH, 1% Bovine Serum Albumin (Sigma A-9647). Dye Loading Buffer: Assay Buffer plus 1% Fetal Bovine Serum and Fluo-4AM/Pluronic Acid Mixture. 2 mM Fluo-4AM ester stock in DMSO (Molecular Probes F-14202) Concentration of 2 μM in buffer for a final concentration of 1 μM in Assay. 20% Pluronic Acid Solution stock, with concentration of 0.04% in Buffer, 0.02% in Assay.
65 μL of 2 mM Fluo-4AM are mixed with 130 μL of 20% Pluronic Acid. The resulting solution and 650 μL FBS is added to the assay buffer for a total volume of 65 mL. Positive Controls: 4-Br-A23187: 10 mM in DMSO; final concentration 10 μM. Acetylcholine: 10 mM in water, working stock at both 20 μM and 30 μM in assay buffer, final concentration of 10 μM. This is used to check the maximum stimulation of the CHOK1/hM1 cells. 20 μM (2×) acetylcholine is added in the preincubation part of the assay, and the 30 μM (3×) stock is added in the second part. (EC20)Acetylcholine: 10 mM in water, working stock of 9 nM (3×), and final concentration in assay is 3 nM. This is used after the preincubation with test compounds. Addition of the EC20 Acetylcholine to each well with a test compound will ascertain any modulator activity. 24 wells contain 3 nM Acetylcholine alone as a control.
Determining Activity of Putative Compounds:
Screening Plate Compounds are titrated in 96-well plates (columns 2-11), 100% DMSO, started at a concentration of 15 mM (150× stock concentration), and 3-fold serial dilutions using Genesis Freedom200 System. Four 96-well plates are combined into a 384-well plate using Mosquito Nanolitre Pipetting System by transferring 1 μl of serial diluted compounds to each well, and 1 mM acetylcholine (100× stock concentration) were added as a control. Using Temo, 49 μl assay buffer is added to each well of the 384-well plate right before assay.
In a 96-well Whatman 2 ml Uniplate, 9 nM Acetylcholine (3×) is pipetted into wells corresponding to the screening compounds, and into control wells. The 30 μM acetylcholine control (3×) is added into control wells, and the 3× agonist plate is transferred into a 384 well plate.
Cells are washed three times with 100 μL of buffer, leaving 30 μL of buffer in each well. Using Multimek, 30 μL of Dye Loading Buffer is added into each well and incubated at 37° C., 5% CO2 for up to one hr.
After 60 min, the cells are washed three times with 100 μL of buffer, leaving 30 μL of buffer in each well. The cell plate, screening plate, and agonist addition plates are placed on the platform in the FLIPR and the door closed. A signal test to check background fluorescence and basal fluorescence signal is performed. Laser intensity is adjusted if necessary. […]
Molecule `COc1ccc(Cc2cc(C(=O)N[C@H]3CCOC[C@@H]3O)nc3c(F)cccc23)cn1` [Example 19, 8-Fluoro-N-[(3R,4S)-3-hydroxytetrahydro-2H-pyran-4-yl]-4-[(6-methoxypyridin-3-yl)methyl]quinoline-2-carboxamide] has an EC50 of 19 nM.

Same assay, conditions: IP = inflection point calculated from FLIPR values; CHOnfat/hM1 cells; 4 min preincubation, then EC20 acetylcholine (3 nM final); read-out: IP Value
For `COc1ccc(C(F)c2cc(C(=O)N[C@H]3CCOC[C@@H]3O)nc3ccccc23)cn1` (stereo partly drawn) [Example 15, 4-[Fluoro(6-methoxypyridin-3-yl)methyl]-N-[(3R,4S)-3-hydroxytetrahydro-2H-pyran-4-yl]quinoline-2-carboxamide hydrate], the EC50 was 52 nM.
`O=C(N[C@H]1CCCC[C@@H]1O)c1cc(Cc2ccc(Cl)nc2)c2ccccc2n1` [Example 1, 4-[(6-Chloropyridin-3-yl)methyl]-N-[(1S,2S)-2-hydroxycyclohexyl]quinoline-2-carboxamide] gave an EC50 of 41 nM.
`COc1ccc(Cc2cc(C(=O)N[C@H]3CCOC[C@@H]3O)nc3ccccc23)cn1` [Example 11, N-[(3R,4S)-3-Hydroxytetrahydro-2H-pyran-4-yl]-4-[(6-methoxypyridin-3-yl)methyl]quinoline-2-carboxamide] showed an EC50 of 52 nM.
Work on `O=C(N[C@H]1CCOC[C@@H]1O)c1cc(Cc2ccc(Cl)nc2)c2cccc(F)c2n1` [Example 16, 4-[(6-Chloropyridin-3-yl)methyl]-8-fluoro-N-[(3R,4S)-3-hydroxytetrahydro-2H-pyran-4-yl]quinoline-2-carboxamide] yielded an EC50 of 22 nM.
Molecule `CCOc1ccc(Cc2cc(C(=O)N[C@H]3CCOC[C@@H]3O)nc3ccccc23)cn1` [Example 12, 4-[(6-Ethoxypyridin-3-yl)methyl]-N-[(3R,4S)-3-hydroxytetrahydro-2H-pyran-4-yl]quinoline-2-carboxamide] has an EC50 of 60 nM.
Molecule `O=C(N[C@H]1CCCC[C@@H]1O)c1cc(Cc2ccc(Cl)nc2)c2ccccc2[n+]1[O-]` [Example 3, 4-[(6-Chloropyridin-3-yl)methyl]-N-[(1S,2S)-2-hydroxycyclohexyl]quinoline-2-carboxamide 1-oxide] has an EC50 of 148 nM.
`CSc1ccc(Cc2cc(C(=O)N[C@H]3CCCC[C@@H]3O)nc3ccccc23)cn1` [Example 7, N-[(1S,2S)-2-Hydroxycyclohexyl]-4-{[6-(inethylsulfanyl)pyridin-3-yl]methyl}quinoline-2-carboxamide] showed an EC50 of 37 nM.
`CSc1ncc(Cc2cc(C(=O)N[C@H]3CCOC[C@@H]3O)nc3ccccc23)cn1` [Example 14, N-[(3R,4S)-3-Hydroxytetrahydro-2H-pyran-4-yl]-4-{[2-(methylsulfanyl)pyrimidin-5-yl]methyl}quinoline-2-carboxamide] gave an EC50 of 316 nM.
Molecule `COc1cc(Cc2cc(C(=O)N[C@H]3CCOC[C@@H]3O)nc3ccccc23)ccn1` [Example 13, N-[(3R,4S)-3-Hydroxytetrahydro-2H-pyran-4-yl]-4-[(2-methoxypyridin-4-yl)methyl]quinoline-2-carboxamide] has an EC50 of 46 nM.
Work on `O=C(N[C@H]1CCOC[C@@H]1O)c1cc(Cc2ccc(C(F)F)nc2)c2cccc(F)c2n1` [Example 17, 4-{[6-(Difluoromethyl)pyridin-3-yl]methyl}-8-fluoro-N-[(3R,4S)-3-hydroxytetrahydro-2H-pyran-4-yl]quinoline-2-carboxamide] yielded an EC50 of 18 nM.
In the case of `Cn1cc(-c2ccc(Cc3cc(C(=O)N[C@H]4CCCC[C@@H]4O)nc4ccccc34)cn2)cn1` [Example 5, N-[(1S,2S)-2-Hydroxycyclohexyl]-4-{[6-(1-methyl-1H-pyrazol-4-yl)pyridin-3-yl]methyl}quinoline-2-carboxamide], the EC50 is reported as 6 nM.
With `COc1ccc(C(F)c2cc(C(=O)N[C@H]3CCOC[C@@H]3O)nc3c(OC)cccc23)cn1` (stereo partly drawn) [Example 18, 4-[Fluoro(6-methoxypyridin-3-yl)methyl]-N-[(3R,4S)-3-hydroxytetrahydro-2H-pyran-4-yl]-8-methoxyquinoline-2-carboxamide] the EC50 was 247 nM.
For `COc1cc(Cc2cc(C(=O)N[C@H]3CCOC[C@@H]3O)nc3c(F)cccc23)cc[n+]1[O-]` [Example 23, 8-Fluoro-N-[(3R,4S)-3-hydroxytetrahydro-2H-pyran-4-yl]-4-[(2-methoxy-1-oxidopyridin-4-yl)methyl]quinoline-2-carboxamide], the EC50 was 411 nM.
Work on `COc1cc(Cc2cc(C(=O)N[C@H]3CCOC[C@@H]3O)nc3c(F)cccc23)ccn1` [Example 22, 8-Fluoro-N-[(3R,4S)-3-hydroxytetrahydro-2H-pyran-4-yl]-4-[(2-methoxypyridin-4-yl)methyl]quinoline-2-carboxamide] yielded an EC50 of 27 nM.
Molecule `O=C(N[C@H]1CCOC[C@@H]1O)c1cc(Cc2ccc(O)nc2)c2cccc(F)c2n1` [Example 20, 8-Fluoro-4-[(6-hydroxypyridin-3-yl)methyl]-N-[(3R,4S)-3-hydroxytetrahydro-2H-pyran-4-yl]quinoline-2-carboxamide] has an EC50 of 65 nM.
In the case of `O=C(N[C@H]1CCCC[C@@H]1O)c1cc(Cc2cccnc2)c2ccccc2n1` [Example 6, N-[(1S,2S)-2-Hydroxycyclohexyl]-4-(pyridin-3-ylmethyl)quinoline-2-carboxamide], the EC50 is reported as 81 nM.
For `COc1ccc(Cc2cc(C(=O)N[C@H]3CCOC[C@@H]3O)nc3c(F)cccc23)c[n+]1[O-]` [Example 21, 8-Fluoro-N-[(3R,4S)-3-hydroxytetrahydro-2H-pyran-4-yl]-4-[(6-methoxy-1-oxidopyridin-3-yl)methyl]quinoline-2-carboxamide], the EC50 was 210 nM.
In the case of `Cc1ccc(Cc2cc(C(=O)N[C@H]3CCCC[C@@H]3O)nc3ccccc23)cn1` [Example 2, N-[(1S,2S)-2-Hydroxycyclohexyl]-4-[(6-methylpyridin-3-yl)methyl]quinoline-2-carboxamide], the EC50 is reported as 143 nM.
`Cn1cc(-c2ccc(Cc3cc(C(=O)N[C@H]4CCCC[C@@H]4F)nc4ccccc34)cn2)cn1` [Example 9, N-[(1S,2S)-2-Fluorocyclohexyl]-4-{[6-(1-methyl-1H-pyrazol-4-yl)pyridin-3-yl]methyl}quinoline-2-carboxamide] showed an EC50 of 261 nM.
Molecule `Cn1cc(-c2ccc(Cc3cc(C(=O)N[C@H]4COCC[C@@H]4O)nc4ccccc34)cn2)cn1` [Example 10, N-[(3S,4S)-4-Hydroxytetrahydro-2H-pyran-3-yl]-4-{[6-(1-methyl-1H-pyrazol-4-yl)pyridin-3-yl]methyl}quinoline-2-carboxamide] has an EC50 of 17 nM.
`Cn1cc(-c2ccc(Cc3cc(C(=O)N[C@H]4CCCC[C@@H]4O)nc4ccccc34)c[n+]2[O-])cn1` [Example 8, N-[(1S,2S)-2-Hydroxycyclohexyl]-4-{[6-(1-methyl-1H-pyrazol-4-yl)-1-oxidopyridin-3-yl]methyl}quinoline-2-carboxamide] gave an EC50 of 21 nM.
